Legend:
Experiment in all cases: Test B pre-/postemergence plant response
Assay type in all cases: in vivo
[1] = tested on: lambsquarters (Chenopodium album)
Procedure, shortened: (§1)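 Seeds were sown and sprayed preemergence, while plants at 2 to 18 cm (1- to 4-leaf stage) got postemergence sprays. Compounds were formulated in a non-phytotoxic solvent mixture with surfactant. After 13 to 15 days in a greenhouse, injury was rated visually against untreated controls, 0 (no effect) to 100 (complete control).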

[2] = tested on: yellow nutsedge (Cyperus esculentus)
Procedure, shortened: as §1

[3] = tested on: Italian ryegrass (Lolium multiflorum)
Procedure, shortened: as §1

[4] = tested on: common ragweed (Ambrosia elation)
Procedure, shortened: as §1

wild oat (Avena fatua) = tested on: wild oat (Avena fatua)
Procedure, shortened: as §1

[5] = tested on: surinam grass (Brachiaria decumbens)
Procedure, shortened: as §1

[6] = tested on: catchweed bedstraw (Galium aparine); settings: Preemergence
Procedure, shortened: as §1

kochia (Kochia scoparia) = tested on: kochia (Kochia scoparia)
Procedure, shortened: as §1

[7] = tested on: green foxtail (Setaria viridis)
Procedure, shortened: as §1

[8] = tested on: morningglory (Ipomoea coccinea)
Procedure, shortened: as §1

corn (Zea mays) = tested on: corn (Zea mays)
Procedure, shortened: as §1

[9] = tested on: eastern black (E.B.) nightshade (Solanum ptycanthum); settings: Preemergence, 250 g ai/ha; scale 0 to 100
Procedure, shortened: as §1

[10] = tested on: cocklebur (Xanthium strumarium)
Procedure, shortened: as §1

[11] = Postemergence, 31 g ai/ha, scale 0 to 100, 0 no effect, 100 complete control
[12] = Postemergence, 62 g ai/ha, scale 0 to 100
[13] = Postemergence, 125 g ai/ha, scale 0 to 100
[14] = Postemergence, 250 g ai/ha, scale 0 to 100
[15] = Preemergence, 62 g ai/ha, scale 0 to 100
[16] = Preemergence, 125 g ai/ha, scale 0 to 100
[17] = Preemergence, 250 g ai/ha, scale 0 to 100
[18] = Preemergence, 31 g ai/ha, 0 to 100 scale, 0 no effect, 100 complete control

Cc1cc(-c2ccc(Br)cc2)nn1-c1c(O)cnn(C)c1=O [Compound 4]
0: Plant response rating, Lambsquarters [1, 11] | Plant response rating, Lambsquarters [1, 12] | Plant response rating, Nutsedge, Yellow [2, 11] | Plant response rating, Nutsedge, Yellow [2, 12] | Plant response rating, Nutsedge, Yellow [2, 13] | Plant response rating, Nutsedge, Yellow [2, 14] | Plant response rating, Nutsedge, Yellow [2, 18] | Plant response rating, Nutsedge, Yellow [2, 15] | Plant response rating, Nutsedge, Yellow [2, 16] | Plant response rating, Ragweed [4, 11] | Plant response rating, Ragweed [4, 12] | Plant response rating, Ragweed [4, 18] | Plant response rating, Ragweed [4, 15] | Plant response rating, Ragweed [4, 16] | Plant response rating, Ragweed [4, 17] | Plant response rating, Galium ([6]; 31 g ai/ha, 0 to 100 scale, 0 no effect, 100 complete control) | Plant response rating, Galium ([6]; 62 g ai/ha, scale 0 to 100) | Plant response rating, Kochia (kochia (Kochia scoparia); [11]) | Plant response rating, Kochia (kochia (Kochia scoparia); [12]) | Plant response rating, Kochia (kochia (Kochia scoparia); [18]) | Plant response rating, Kochia (kochia (Kochia scoparia); [16]) | Plant response rating, Kochia (kochia (Kochia scoparia); [17]) | Plant response rating, Morningglory [8, 11] | Plant response rating, Morningglory [8, 12] | Plant response rating, Morningglory [8, 13] | Plant response rating, Morningglory [8, 14] | Plant response rating, Morningglory [8, 18] | Plant response rating, Morningglory [8, 15] | Plant response rating, Morningglory [8, 16] | Plant response rating, Cocklebur [10, 11] | Plant response rating, Cocklebur [10, 12] | Plant response rating, Cocklebur [10, 13] | Plant response rating, Cocklebur [10, 14] | Plant response rating, Cocklebur [10, 18] | Plant response rating, Cocklebur [10, 15] | Plant response rating, Cocklebur [10, 16]
100: Plant response rating, Ryegrass, Italian [3, 11] | Plant response rating, Ryegrass, Italian [3, 12] | Plant response rating, Ryegrass, Italian [3, 13] | Plant response rating, Ryegrass, Italian [3, 14] | Plant response rating, Ryegrass, Italian [3, 18] | Plant response rating, Ryegrass, Italian [3, 15] | Plant response rating, Ryegrass, Italian [3, 16] | Plant response rating, Ryegrass, Italian [3, 17] | Plant response rating, Oat, Wild (wild oat (Avena fatua); [12]) | Plant response rating, Oat, Wild (wild oat (Avena fatua); [13]) | Plant response rating, Oat, Wild (wild oat (Avena fatua); [14]) | Plant response rating, Surinam Grass [5, 11] | Plant response rating, Surinam Grass [5, 12] | Plant response rating, Surinam Grass [5, 13] | Plant response rating, Surinam Grass [5, 14] | Plant response rating, Surinam Grass [5, 18] | Plant response rating, Surinam Grass [5, 15] | Plant response rating, Surinam Grass [5, 16] | Plant response rating, Surinam Grass [5, 17] | Plant response rating, Foxtail, Green [7, 12] | Plant response rating, Foxtail, Green [7, 13] | Plant response rating, Foxtail, Green [7, 14] | Plant response rating, Foxtail, Green [7, 18] | Plant response rating, Foxtail, Green [7, 15] | Plant response rating, Foxtail, Green [7, 16] | Plant response rating, Foxtail, Green [7, 17] | Plant response rating, Corn (corn (Zea mays); [13]) | Plant response rating, Corn (corn (Zea mays); [14]) | Plant response rating, Corn (corn (Zea mays); [17])
95: Plant response rating, Oat, Wild (wild oat (Avena fatua); [17]) | Plant response rating, Foxtail, Green [7, 11] | Plant response rating, Corn (corn (Zea mays); [12]) | Plant response rating, Corn (corn (Zea mays); [15])
70: Plant response rating, Oat, Wild (wild oat (Avena fatua); [15]) | Plant response rating, Kochia (kochia (Kochia scoparia); [14])
65: Plant response rating, Oat, Wild (wild oat (Avena fatua); [18])
30: Plant response rating, Morningglory [8, 17] | Plant response rating, Cocklebur [10, 17]
60: Plant response rating, Lambsquarters [1, 13] | Plant response rating, Kochia (kochia (Kochia scoparia); [13])
80: Plant response rating, Lambsquarters [1, 14] | Plant response rating, Ragweed [4, 14] | Plant response rating, Nightshade, E. B. [9]
98: Plant response rating, Oat, Wild (wild oat (Avena fatua); [11]) | Plant response rating, Corn (corn (Zea mays); [16])
85: Plant response rating, Lambsquarters [1, 15] | Plant response rating, Lambsquarters [1, 16] | Plant response rating, Oat, Wild (wild oat (Avena fatua); [16]) | Plant response rating, Galium ([6]; 125 g ai/ha, scale 0 to 100) | Plant response rating, Corn (corn (Zea mays); [18])
90: Plant response rating, Lambsquarters [1, 17] | Plant response rating, Galium ([6]; 250 g ai/ha, scale 0 to 100) | Plant response rating, Corn (corn (Zea mays); [11])
50: Plant response rating, Ragweed [4, 13]
